Experimental data taken from US20250129135A1, “Multi-Agonist and Use Thereof” (priority 2021, published 2025).

Columns and labels:
Human GLP-1R = Human GLP-1R (Homo sapiens, UniProt P43220); settings: background statement; cited from earlier work
[1] = 26 weeks, cited from earlier work
GCG receptor = GCG receptor (Homo sapiens, UniProt P47871); settings: background statement; cited from earlier work
[2] = Phase II clinical study, cited from earlier work
C57 BL/6J DIO mice = experiment: In vivo pharmacodynamics in high-fat diet induced obesity (DIO) mice; set-up: species or system mouse; settings: Mean±SEM; for Weight change: Table 6-1; for LDL-C / TC (total cholesterol) / TG (plasma triglycerides): Table 7-1, Day 15
Outline: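 DIO mice (60 kcal% fat diet) dosed subcutaneously in 1×PBS, 5 ml/kg, every three days for 15 days. Daily body weight and food intake as % change from baseline; day 15 fasting glucose, plasma TC, LDL-C, TG, insulin and liver TG. Mean±SEM, one-way ANOVA with Dunnett's versus vehicle.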

Chain of GCG receptor (P47871 26-477): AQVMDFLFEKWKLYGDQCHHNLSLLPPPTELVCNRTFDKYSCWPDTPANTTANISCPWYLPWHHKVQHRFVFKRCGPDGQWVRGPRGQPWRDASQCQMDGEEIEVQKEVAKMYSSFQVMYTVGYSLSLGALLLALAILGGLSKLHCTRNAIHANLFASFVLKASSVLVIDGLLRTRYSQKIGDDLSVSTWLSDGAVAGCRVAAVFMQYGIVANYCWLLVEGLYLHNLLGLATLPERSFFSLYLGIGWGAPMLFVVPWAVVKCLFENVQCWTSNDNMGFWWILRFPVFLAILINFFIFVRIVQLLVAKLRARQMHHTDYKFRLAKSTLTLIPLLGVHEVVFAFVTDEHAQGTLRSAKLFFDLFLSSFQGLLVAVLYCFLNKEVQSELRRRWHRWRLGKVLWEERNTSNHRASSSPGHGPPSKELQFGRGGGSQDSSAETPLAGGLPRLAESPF
Chain of Human GLP-1R (P43220 24-463, species assumed): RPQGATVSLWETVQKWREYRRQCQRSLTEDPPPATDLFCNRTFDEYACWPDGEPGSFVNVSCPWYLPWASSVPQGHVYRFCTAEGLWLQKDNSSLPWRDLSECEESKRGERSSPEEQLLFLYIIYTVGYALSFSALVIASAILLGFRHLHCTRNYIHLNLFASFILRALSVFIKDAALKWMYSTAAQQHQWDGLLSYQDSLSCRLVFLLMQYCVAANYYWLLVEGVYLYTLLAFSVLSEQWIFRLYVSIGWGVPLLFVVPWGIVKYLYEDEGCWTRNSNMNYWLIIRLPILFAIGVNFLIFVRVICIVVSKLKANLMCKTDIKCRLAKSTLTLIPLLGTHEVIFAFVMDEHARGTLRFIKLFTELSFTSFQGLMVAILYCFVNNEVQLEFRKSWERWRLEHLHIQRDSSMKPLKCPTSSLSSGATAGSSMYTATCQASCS

## CCCCCCCCCCCCCCCC(=O)N[C@@H](CCC(=O)NCCCC[C@H](NC(=O)[C@H](CC(=O)O)NC(=O)[C@H](CO)NC(=O)[C@@H](NC(=O)[C@H](Cc1ccccc1)NC(=O)[C@@H](NC(=O)CNC(=O)[C@H](CCC(N)=O)NC(=O)[C@H](CO)NC(=O)[C@@H](N)Cc1c[nH]cn1)[C@@H](C)O)[C@@H](C)O)C(=O)N[C@@H](CO)C(=O)N[C@@H](CCC(=O)O)C(=O)N[C@@H](Cc1ccc(O)cc1)C(=O)N[C@@H](CC(C)C)C(=O)N[C@@H](CC(=O)O)C(=O)N[C@@H](CO)C(=O)N[C@@H](CCC(=O)O)C(=O)N[C@@H](CCCNC(=N)N)C(=O)N[C@@H](C)C(=O)N[C@@H](CCCNC(=N)N)C(=O)N[C@@H](CC(=O)O)C(=O)N[C@@H](Cc1ccccc1)C(=O)N[C@H](C(=O)N[C@@H](C)C(=O)N[C@@H](Cc1c[nH]c2ccccc12)C(=O)N[C@@H](CC(C)C)C(=O)N[C@@H](CCC(=O)O)C(=O)N[C@@H](C)C(=O)NCC(=O)NCC(=O)O)C(C)C)C(=O)O [Cotadutide]
Human GLP-1R
  GLP-1 receptor activity EC50 relative to wild-type GLP-1: 29%
[1]; 100-300 μg compared to liraglutide
  body weight, blood lipids, and levels of ALT and AST: dose-dependent reduction
[1]; each dose group compared to liraglutide
  reduction of HbA1c: no significant advantage
GCG receptor
  GCG receptor relative activity EC50: 12.8%

## CC[C@H](C)[C@H](NC(=O)[C@H](CC(C)C)NC(=O)[C@H](Cc1c[nH]c2ccccc12)NC(=O)[C@H](CCC(N)=O)NC(=O)[C@@H](NC(=O)[C@H](Cc1ccccc1)NC(=O)[C@H](C)NC(=O)[C@H](CCCCNC(=O)COCCOCCNC(=O)COCCOCCNC(=O)CC[C@H](NC(=O)CCCCCCCCCCCCCCCCCCC(=O)O)C(=O)O)NC(=O)[C@H](CCC(N)=O)NC(=O)[C@H](C)NC(=O)[C@@H](NC(=O)[C@H](CCCCN)NC(=O)[C@H](CC(=O)O)NC(=O)[C@H](CC(C)C)NC(=O)C(C)(C)NC(=O)[C@@H](NC(=O)[C@H](CO)NC(=O)[C@H](Cc1ccc(O)cc1)NC(=O)[C@H](CC(=O)O)NC(=O)[C@H](CO)NC(=O)[C@@H](NC(=O)[C@H](Cc1ccccc1)NC(=O)[C@@H](NC(=O)CNC(=O)[C@H](CCC(=O)O)NC(=O)C(C)(C)NC(=O)[C@@H](N)Cc1ccc(O)cc1)[C@@H](C)O)[C@@H](C)O)[C@@H](C)CC)[C@@H](C)CC)C(C)C)C(=O)N[C@@H](C)C(=O)NCC(=O)NCC(=O)N1CCC[C@H]1C(=O)N[C@@H](CO)C(=O)N[C@@H](CO)C(=O)NCC(=O)N[C@@H](C)C(=O)N1CCC[C@H]1C(=O)N1CCC[C@H]1C(=O)N1CCC[C@H]1C(=O)N[C@@H](CO)C(N)=O [Tirzepatide, reference compound]
[2]; 1 mg dose vs Dulaglutide 1.5 mg
  hypoglycemic effect: significantly lower than that of Dulaglutide 1.5 mg
[2]; 1 mg dose
  weight loss effect: almost no weight loss effect
C57 BL/6J DIO mice; 3 nmol/kg s.c. Q3D for 15 days
  Weight change: −16.1 ± 0.71%
C57 BL/6J DIO mice; 10 nmol/kg s.c. Q3D for 15 days
  Weight change: −21.6 ± 0.99%
C57 BL/6J DIO mice; 30 nmol/kg s.c. Q3D for 15 days
  Weight change: −32.6 ± 1.60%
C57 BL/6J DIO mice; 3 nmol/kg
  LDL-C: 0.62 ± 0.065 mM
  TC (total cholesterol): 4.12 ± 0.322 mM
  TG (plasma triglycerides): 0.97 ± 0.050 mM
C57 BL/6J DIO mice; 30 nmol/kg
  LDL-C: 0.57 ± 0.057 mM
  TC (total cholesterol): 3.28 ± 0.259 mM
  TG (plasma triglycerides): 0.79 ± 0.068 mM
